The target of test [1] is T1, human CB2 receptors (Homo sapiens, UniProt P34972).
T1 construct: expressed in transfected cells; membrane preparation
The test is described as follows: human CB2 radioligand binding assay. How it is done: (§1) (i) In Vitro Methods—CB2 and CB1 Radioligand Binding Assays:
(§2) The CB1 and CB2 radioligand binding assays described herein are utilized to ascertain the selectivity of compounds of the present application for binding to CB2 relative to CB1 receptors.
(§3) HEK293 cells stably expressing human CB2 receptors were grown until a confluent monolayer was formed. Briefly, the cells were harvested and homogenized in TE buffer (50 mM Tris-HCl, 1 mM MgCl2, and 1 mM EDTA) using a polytron for 2×10 second bursts in the presence of protease inhibitors, followed by centrifugation at 45,000×g for 20 minutes. The final membrane pellet was re-homogenized in storage buffer (50 mM Tris-HCl, 1 mM MgCl2, and 1 mM EDTA and 10% sucrose) and frozen at −78° C. until used. Saturation binding reactions were initiated by the addition of membrane preparation (protein concentration of 5 μg/well for human CB2) into wells of a deep well plate containing [^3H]CP-55,940 (120 Ci/mmol, a nonselective CB agonist commercially available from Tocris) in assay buffer (50 mM Tris, 2.5 mM EDTA, 5 mM MgCl2, and 0.5 mg/mL fatty acid free BSA, pH 7.4). After 90 min incubation at 30° C., binding reaction was terminated by the addition of 300 μL/well of cold assay buffer followed by rapid vacuum filtration through a UniFilter-96 GF/C filter plates (pre-soaked in 1 mg/mL BSA for 2 hours). The bound activity was counted in a TopCount using Microscint-20. Saturation experiments were conducted with twelve concentrations of [^3H]CP-55,940 ranging from 0.01 to 8 nM. Competition experiments were conducted with 0.5 nM [^3H]CP-55,940 and five concentrations (0.01 nM to 10 μM) of displacing ligands. The addition of 10 μM unlabeled CP-55,940 (Tocris, Ellisville, Mo.) was used to assess nonspecific binding.

For test [2], the target named is T2, rat CB2 receptors (Rattus norvegicus, UniProt Q9QZN9).
T2 construct: expressed in transfected cells; membrane preparation
T2 sequence (Q9QZN9 1-360): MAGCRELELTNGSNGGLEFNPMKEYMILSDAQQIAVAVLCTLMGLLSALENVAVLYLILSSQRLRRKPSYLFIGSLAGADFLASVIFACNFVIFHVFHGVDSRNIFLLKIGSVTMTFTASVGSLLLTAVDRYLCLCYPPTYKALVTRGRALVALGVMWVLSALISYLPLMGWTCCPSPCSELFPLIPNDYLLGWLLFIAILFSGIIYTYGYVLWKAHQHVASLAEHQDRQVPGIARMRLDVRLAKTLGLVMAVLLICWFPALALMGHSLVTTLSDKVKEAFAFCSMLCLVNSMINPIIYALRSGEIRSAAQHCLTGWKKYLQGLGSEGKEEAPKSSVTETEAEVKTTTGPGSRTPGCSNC
The test is described as follows: rat CB2 radioligand binding assay. The protocol:
as §1, §2
as §3, with “expressing rat” for “expressing human”, “of 20” for “of 5”, “for rat” for “for human”, “After 45” for “After 90”, “concentrations of displacing ligands selected from the range of 0.01” for “concentrations (0.01”, “10 μM.” for “10 μM) of displacing ligands.”

Setting [3] is: competition with 0.5 nM [3H]CP-55,940, HEK293 membranes expressing human CB2, read-out: human CB2 binding (Ki).
Setting [4] is: competition with 0.5 nM [3H]CP-55,940, HEK293 membranes expressing rat CB2, read-out: rat CB2 binding (Ki).

Like-named read-outs stand apart in the source and are kept apart here.

T1 sequence (P34972 whole entry): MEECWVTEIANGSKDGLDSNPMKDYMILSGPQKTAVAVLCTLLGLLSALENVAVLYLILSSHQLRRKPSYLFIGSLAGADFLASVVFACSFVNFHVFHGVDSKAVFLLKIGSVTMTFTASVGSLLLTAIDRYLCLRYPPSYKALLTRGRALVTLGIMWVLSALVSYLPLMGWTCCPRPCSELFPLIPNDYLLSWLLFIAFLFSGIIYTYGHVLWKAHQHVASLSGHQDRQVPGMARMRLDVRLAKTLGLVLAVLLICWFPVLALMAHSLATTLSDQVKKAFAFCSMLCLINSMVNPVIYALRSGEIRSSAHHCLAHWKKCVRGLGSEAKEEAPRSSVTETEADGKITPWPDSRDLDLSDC

For orientation: Ki means the dissociation constant of the complex between target and ligand, obtained from inhibition or displacement. Regarding `CCCCn1/c(=N/C(=O)c2cc(C(F)(F)F)ccc2CCC(C)(C)O)cc(C(C)(C)C)n1C` [Example 1, N-[(3E)-2-butyl-5-tert-butyl-1-methyl-1,2-dihydro-3H-pyrazol-3-ylidene]-2-(3-hydroxy-3-methylbutyl)-5-(trifluoromethyl)benzamide], the Ki in test [1] (setting [3]) amounted to 0.133 µM; in test [2] (setting [4]), 0.102 µM.

In the case of `CCCCn1/c(=N/C(=O)c2cc(C(F)(F)F)ccc2CN2CC(C)(O)C2)cc(C(C)(C)C)n1C` [Example 12, N-[(3E)-2-butyl-5-tert-butyl-1-methyl-1,2-dihydro-3H-pyrazol-3-ylidene]-2-[(3-hydroxy-3-methylazetidin-1-yl)methyl]-5-(trifluoromethyl)benzamide], the values for the Ki in test [1] (setting [3]) and in test [2] (setting [4]) were 0.142 µM and 0.177 µM, respectively.

On to `CCCCn1nc(C(C)(C)C)s/c1=N\C(=O)c1cc(C(F)(F)F)ccc1CN1CC(C)(O)C1` [Example 17, N-[(2Z)-3-butyl-5-tert-butyl-1,3,4-thiadiazol-2(3H)-ylidene]-2-[(3-hydroxy-3-methylazetidin-1-yl)methyl]-5-(trifluoromethyl)benzamide], for which the Ki was found to be 0.0059 µM in test [1] and 0.00145 µM in test [2].

Turning to `CCCCn1nc(C(C)(C)C)s/c1=N\C(=O)c1cc(C(F)(F)F)ccc1CN1CC(C(=O)OC)C1` [Example 21, methyl 1-[2-({[(2Z)-3-butyl-5-tert-butyl-1,3,4-thiadiazol-2(3H)-ylidene]amino}carbonyl)-4-(trifluoromethyl)benzyl]azetidine-3-carboxylate], the Ki in test [1] came to 0.00393 µM; in test [2] it was 0.00179 µM.

Take `CCCn1/c(=N/C(=O)c2cc(C(F)(F)F)ccc2/C=C/C(C)(C)O)cc(C(C)(C)C)n1C` [Example 5, N-[(3E)-5-tert-butyl-1-methyl-2-propyl-1,2-dihydro-3H-pyrazol-3-ylidene]-2-[(1E)-3-hydroxy-3-methylbut-1-enyl]-5-(trifluoromethyl)benzamide]: the Ki worked out at 0.277 µM in test [1] and 0.0896 µM in test [2].

For the molecule `CCCCCn1/c(=N/C(=O)c2cc(C(F)(F)F)ccc2CCC(C)(C)O)cc(C(C)(C)C)n1C` [Example 2, N-[(3E)-5-tert-butyl-1-methyl-2-pentyl-1,2-dihydro-3H-pyrazol-3-ylidene]-2-(3-hydroxy-3-methylbutyl)-5-(trifluoromethyl)benzamide], the Ki is 0.0322 µM in test [1] and 0.025 µM in test [2].

As to `Cn1c(C(C)(C)C)c/c(=N\C(=O)c2cc(C(F)(F)F)ccc2CN2CC(C)(O)C2)n1CC1CC1` [Example 10, N-[(3E)-5-tert-butyl-2-(cyclopropylmethyl)-1-methyl-1,2-dihydro-3H-pyrazol-3-ylidene]-2-[(3-hydroxy-3-methylazetidin-1-yl)methyl]-5-(trifluoromethyl)benzamide], the values for the Ki in test [1] and in test [2] were 0.186 µM and 0.108 µM, respectively.

Take `CCCCn1/c(=N/C(=O)c2cc(C(F)(F)F)ccc2CCC(=O)OCC)cc(C(C)(C)C)n1C` [Example 11, ethyl 3-[2-({[(3E)-2-butyl-5-tert-butyl-1-methyl-1,2-dihydro-3H-pyrazol-3-ylidene]amino}carbonyl)-4-(trifluoromethyl)phenyl]propanoate]: the Ki in test [1] came to 0.0533 µM; in test [2], 0.0325 µM.

Consider `CCCCn1/c(=N/C(=O)c2cc(C(F)(F)F)ccc2CN2CC(O)C2)cc(C(C)(C)C)n1C` [Example 24, N-[(3E)-2-butyl-5-tert-butyl-1-methyl-1,2-dihydro-3H-pyrazol-3-ylidene]-2-[(3-hydroxyazetidin-1-yl)methyl]-5-(trifluoromethyl)benzamide], for which the Ki was 0.117 µM in test [1] (setting [3]) and 0.0875 µM in test [2].

Consider `Cn1c(C(C)(C)C)c/c(=N\C(=O)c2cc(C(F)(F)F)ccc2CN2CC(O)C2)n1CC1CC1` [Example 9, N-[(3E)-5-tert-butyl-2-(cyclopropylmethyl)-1-methyl-1,2-dihydro-3H-pyrazol-3-ylidene]-2-[(3-hydroxyazetidin-1-yl)methyl]-5-(trifluoromethyl)benzamide], for which the Ki in test [1] stood at 0.0301 µM; in test [2], 0.0248 µM.

Take `COCCCn1/c(=N/C(=O)c2cc(C(F)(F)F)ccc2/C=C/C(C)(C)O)cc(C(C)(C)C)n1C` [Example 14, N-[(3E)-5-tert-butyl-2-(3-methoxypropyl)-1-methyl-1,2-dihydro-3H-pyrazol-3-ylidene]-2-[(1E)-3-hydroxy-3-methylbut-1-enyl]-5-(trifluoromethyl)benzamide]: the Ki in test [1] (setting [3]) came to 0.111 µM; in test [2] it was 0.0306 µM.

In the case of `CCCCn1nc(C(C)(C)C)s/c1=N\C(=O)c1cc(C(F)(F)F)ccc1CN1CC[C@@H](O)C1` [Example 19, N-[(2Z)-3-butyl-5-tert-butyl-1,3,4-thiadiazol-2(3H)-ylidene]-2-{[(3R)-3-hydroxypyrrolidin-1-yl]methyl}-5-(trifluoromethyl)benzamide], the Ki in test [1] is 0.0153 µM; in test [2], 0.00385 µM.

Turning to `CCCCn1/c(=N/C(=O)c2cc(C(F)(F)F)ccc2CN2CC[C@@H](O)C2)cc(C(C)(C)C)n1C` [Example 13, N-[(3E)-2-butyl-5-tert-butyl-1-methyl-1,2-dihydro-3H-pyrazol-3-ylidene]-2-{[(3R)-3-hydroxypyrrolidin-1-yl]methyl}-5-(trifluoromethyl)benzamide], the inhibition constant Ki in test [2] (setting [4]) came out at 0.453 µM.

In the case of `CCCCn1/c(=N/C(=O)c2cc(C(F)(F)F)ccc2COCC(C)(C)O)cc(C(C)(C)C)n1C` [Example 25, N-[(3E)-2-butyl-5-tert-butyl-1-methyl-1,2-dihydro-3H-pyrazol-3-ylidene]-2-[(2-hydroxy-2-methylpropoxy)methyl]-5-(trifluoromethyl)benzamide], the figures for the Ki in test [1] and in test [2] were 0.025 µM and 0.0178 µM, respectively.

Regarding `Cn1c(C(C)(C)C)c/c(=N\C(=O)c2cc(C(F)(F)F)ccc2/C=C/C(C)(C)O)n1CC1CC1` [Example 3, N-[(3E)-5-tert-butyl-2-(cyclopropylmethyl)-1-methyl-1,2-dihydro-3H-pyrazol-3-ylidene]-2-[(1E)-3-hydroxy-3-methylbut-1-enyl]-5-(trifluoromethyl)benzamide], the values for the Ki in test [1] and in test [2] were 0.0417 µM and 0.0372 µM, respectively.

With `CCCCn1nc(C(C)(C)C)s/c1=N\C(=O)c1cc(C(F)(F)F)ccc1CO` [Example 20, N-[(2Z)-3-butyl-5-tert-butyl-1,3,4-thiadiazol-2(3H)-ylidene]-2-(hydroxymethyl)-5-(trifluoromethyl)benzamide], the Ki in test [1] is 0.00189 µM; in test [2], 0.00057 µM.

As to `COCCCn1/c(=N/C(=O)c2cc(C(F)(F)F)ccc2CCC(C)(C)O)cc(C(C)(C)C)n1C` [Example 15, N-[(3E)-5-tert-butyl-2-(3-methoxypropyl)-1-methyl-1,2-dihydro-3H-pyrazol-3-ylidene]-2-(3-hydroxy-3-methylbutyl)-5-(trifluoromethyl)benzamide], in test [2] (setting [4]), the Ki stood at 0.22 µM.

For the molecule `CCCCn1nc(C(C)(C)C)s/c1=N\C(=O)c1cc(C(F)(F)F)ccc1CN1CC(O)C1` [Example 16, N-[(2Z)-3-butyl-5-tert-butyl-1,3,4-thiadiazol-2(3H)-ylidene]-2-[(3-hydroxyazetidin-1-yl)methyl]-5-(trifluoromethyl)benzamide], the Ki in test [1] was determined as 0.00163 µM; in test [2], 0.0008 µM.

(Values after patent US8288428B2, “Compounds as cannabinoid receptor ligands” (Abbott Laboratories, priority 2009, dated 2012).)
